# From patent US8088886B2, “Lipoprotein associated phospholipase A2, inhibitors thereof and use of the same in diagnosis and therapy” (Smith-Kline Beecham P.L.C., priority 1993, dated 2012)
# pIC50: −log10 of the molar value.
# Target: T1, Lp-PLA2 (Homo sapiens, UniProt Q13093)
# T1 construct: from tissue; host or cells: LDL from plasma (apheresis)
# T1 sequence (Q13093 22-441): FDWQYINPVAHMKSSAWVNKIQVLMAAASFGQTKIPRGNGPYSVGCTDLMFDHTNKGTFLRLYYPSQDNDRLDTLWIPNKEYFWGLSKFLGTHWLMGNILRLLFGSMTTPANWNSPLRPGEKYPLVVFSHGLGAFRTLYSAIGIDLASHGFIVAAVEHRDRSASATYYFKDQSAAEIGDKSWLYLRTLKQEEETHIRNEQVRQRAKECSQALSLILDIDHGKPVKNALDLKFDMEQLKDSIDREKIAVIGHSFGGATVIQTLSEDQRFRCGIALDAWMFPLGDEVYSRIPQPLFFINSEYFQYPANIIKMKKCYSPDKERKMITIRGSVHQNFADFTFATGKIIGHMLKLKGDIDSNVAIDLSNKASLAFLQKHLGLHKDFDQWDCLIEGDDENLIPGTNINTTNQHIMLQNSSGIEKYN
# Assay: Screen for Lp-PLA2 inhibition (turnover of artificial substrate (A), absorbance at 405 nm)
# Format: biochemical
# Conditions: 37° C., pH 7.4, 10 min pre-incubation, 20 μM substrate (A)
# Method: 1. Screen for Lp-PLA2 Inhibition.
# Enzyme activity was determined by measuring the rate of turnover of the artificial substrate (A) at 37° C. in 50 mM HEPES (N-2-hydroxyethylpiperazine-N′-2-ethanesulphonic acid) buffer containing 150 mM NaCl, pH 7.4.
# Assays were performed in 96 well titre plates.
# Lp-PLA2 was pre-incubated at 37° C. with vehicle or test compound for 10 min in a total volume of 180 μl. The reaction was then initiated by the addition of 20 μl 10× substrate (A) to give a final substrate concentration of 20 μM. The reaction was followed at 405 nm for 20 minutes using a plate reader with automatic mixing. The rate of reaction was measured as the rate of change of absorbance.
row,pIC50,SMILES
1,6.10,CCCCCCCCCCCCCCCCOCC(COP(=O)([O-])OCC[N+](C)(C)C)NC(C)=O (centres unmarked) [Compound 1]
2,5.46,CCCCCCCCCCCCCCCCCCOCC(COP(=O)([O-])OCC[N+](C)(C)C)NC(C)=O (centres unmarked) [Compound 2]
3,6.00,CCCCCCCCCCCCCCCCCCOCC(COP(=O)([O-])OCC[S+](C)C)NC(C)=O (centres unmarked) [Compound 3]
4,6.26,CCCCCCCCCCCCCCCCCCOCC(COP(=O)([O-])OCC[n+]1ccn(C)c1)NC(C)=O (centres unmarked) [Compound 8]
5,5.60,CCCCCCCCCCCCCCCCCCOCC(COP(=O)([O-])OCC[N+](C)(C)C)NC(=O)C(F)(F)F (centres unmarked) [Compound 9]
